The values that follow are results of earlier work, collected in patent US10940128B2, “Injectable melphalan compositions comprising a cyclodextrin derivative and methods of making and using the same” (CYDEX PHARMACEUTICALS, INC., priority 2009, dated 2021).

Data set [1] concerns certain animal tumors. Particulars: in vivo; cited from earlier work.
The conditions of data set [2]: cited from earlier work; for Mean (±SD) peak melphalan plasma concentrations: myeloma patients; for clearance of melphalan: repeat dosing of 0.5 mg/kg every 6 weeks.
Data set [3] has as its system plasma proteins. Particulars: cited from earlier work.
The conditions of data set [4]: patients who have received intravenous melphalan; cited from earlier work.
For data set [5] the following is noted: water (pH 7); cited from earlier work.

Read-outs that look alike come from different tables or passages of the source.

Turning to `N[C@H](Cc1ccc(N(CCCl)CCCl)cc1)C(=O)O` [medphalan], in data set [1], the “activity against certain animal tumors compared with melphalan” value was “less active”.

Take `N[C@@H](Cc1ccc(N(CCCl)CCCl)cc1)C(=O)O` [melphalan, 4-[bis(chloroethyl)amino]phenylalanine]: in data set [2] (after intravenous administration of 50 mg of melphalan), the “steady-state volume of distribution” value is given as 0.5 L/kg. Besides, the “Mean (±SD) peak melphalan plasma concentrations” value in data set [2] (10 mg/m^2 dose) was 1.2 ± 0.4 µg/mL; in data set [2] (20 mg/m^2 dose), 2.8 ± 1.9 µg/mL. In addition, the clearance of melphalan in data set [2] (after the first course) is given as 8.1 mL/min/kg; in data set [2] (after the third course) it was 5.5 mL/min/kg. In addition, the “extent of melphalan binding to plasma proteins” value in data set [3] is 60% to 90. The “drug (covalently) irreversibly bound to plasma proteins” value in data set [3] (plasma) was “Approximately 30%”. Further, the “share of the plasma protein binding accounted for by α1-acid glycoprotein” value in data set [3] (plasma) is “about 20%”. Moreover, the “hypersensitivity reactions, including anaphylaxis, share of patients” value in data set [4] is listed as “approximately 2%”. The solubility in water entry in data set [5] was “practically insoluble”.
